Test system: HBV DNA (AAV2/8-HBV)
Experiment: Serum HBV DNA (viral load) by qPCR in HBV-persistent mice
Assay type: in vivo, C57BL/6J mice
Settings: sildenafil only 5, 20 or 80 mg/kg/day (groups b to d), over the experiment
Protocol: Graph A illustrates the median level of HBsAg determined in the serum of groups of 10 mice (groups a to h) treated with sildenafil at 5 mg/kg/day (group b), at 20 mg/kg/day (group c), or at 80 mg/kg/day (group d) alone, or with AdTG18201 (group e) alone or with a combination of AdTG18201 and sildenafil (at 5, 20, or 80 mg/kg/day, groups f, g and h, respectively). The control group a is untreated. The Y-axis indicates the median HBsAg level (ng/mL) for each group and the X-axis the time (number of days post-AAV2/8-HBV injection). Graph B illustrates the median level of HBV DNA determined in the serum of the same groups of mice by PCR. […]
The HBV persistent mice used in the study were described by Dion et al. (2013, J Virol, 87(10):5554-63). […] This allows the analysis of HBV-specific viral parameters (HBsAg, HBeAg, HBcAg and viremia) as well as immunological read-outs (ICS, ELISpot or humoral immune responses). […]
HBV DNA copy number was determined in samples using the PrimerDesign™ Genesig Advanced Kit for Hepatitis B (ref. Path-HBV, PrimerDesign) and the 7500 real time system from Applied Biosystems. Data were analyzed using the 7500 System SDS software v2.0.6. […]
The Quantitect Multiplex PCR kit (ref. 204545, Qiagen) was used to carry out the qPCR reactions. […]
The limit of quantification (LOQ) was 100 DNA copies per reaction and the limit of detection (LOD) was 10 copies per reaction. […]

For CCCc1nn(C)c2c(=O)nc(-c3cc(S(=O)(=O)N4CCN(C)CC4)ccc3OCC)[nH]c12 [sildenafil, 1-[[3-(4,7-dihydro-1-methyl-7-oxo-3-propyl-1H-pyrazolo[4,3-d]pyrimidin-5-yl)-4-ethoxyphenyl]sulfonyl]-4-methylpiperazine], the “median level of viral DNA” value was “around 10^5 copies/mL serum”.

Reference: US20190328869A1, “IMMUNOTHERAPEUTIC PRODUCT AND MDSC MODULATOR COMBINATION THERAPY” (Transgene SA, priority 2016, published 2019)
